Experimental data: US10189881B2, “MPS peptides and use thereof” (The Regents of the University of California, priority 2013, dated 2019)

What was measured:
[1] = test system: MARCKS phosphorylation (Ser159/163); assay: Western blot of MARCKS phosphorylation in peptide-treated cells; assay type: cell-based, human; conditions: alanine-substituted peptide
Procedure: The levels of MARCKS phosphorylation in chemoresistant cancer cell lines after 24 hours of MPS or mutant (Mut) peptide treatment. Lysates form 100 μM MPS-or Mut peptide-treated H1650 or H1975cells were subjected to immunoblotting. The sequences of MARCKS MPS peptide consisted of amino acids 152 to 176 from the wild-type protein (SEQ ID NO: 9). The sequences of mutated MPS peptide (Mut) (SEQ ID NO: 14) had the replacement of serine residues (S) by aspartate (D) and are unable to be recognized by PKC. The underline represents the PIP2 binding site.
FIGS. 13A-13G show MPS peptide suppresses cancer cell proliferation and also induces apoptosis in these cells through direct downregulation of MARCKS activation. (A) Determination of MARCKS phosphorylation levels after 24 hours of MPS peptide treatment. Lysates from 1-100 μM MPS peptide-treated H1975 cells were subjected to western blot analysis. (B) Levels of PIP3 in drug resistant cancer cell lines after MPS peptide treatment. Cells were treated with 10, 50 or 100 μM MPS peptide. After 24 hours of treatment, PIP3 lipids were extracted from these cells and analyzed by a PIP3 ELISA kit. *P<0.05 compared with untreated cells. (C) Downregulation of AKT phosphorylation by MPS peptide treatment, but not by Mut peptide. Cells were treated with 100 μM MPS or Mut peptide for 24 hours. Lysates were immunoblotted with the indicated antibodies. (D) Cell viability analysis of six cancer cell lines and human bronchial epithelial cells (HBE1) upon MPS treatment. Cells were incubated with various concentrations of MPS peptide for 72 hours and then subjected to MTS assays. Polylysine served as a peptide control. n=4, *P<0.05 compared with untreated cells (Con). (E) Cells were treated with the indicated concentrations of MPS peptide and colonies were counted after 10 days of treatment using crystal violet staining (F) MPS treatment augments cell death. […] The percentages of apoptotic cells were quantified by flow cytometry (top), and presented as mean±SD of three experiments (bottom). *, P<0.05 versus untreated cells (Con). […]

CL1-0 cells = assay: NBD-labeled peptide binding to live cells (confocal microscopy); assay type: cell-based, human; conditions: NBD-labeled peptides; b53 versus D-Mut, b70 versus SEQ ID NO: 9
Source text: FIGS. 28A-28C show MPS peptide binding to live cells. (A) Peptide sequences showing substitution of serine residues in MPS peptide (SEQ ID NO: 9). The serine residues of MPS peptide were replaced either by adding 4 aspartic acids (SEQ ID NO: 14), which are negatively charged and result in making the final peptide less positive, or by adding 4 alanines (SEQ ID NO: 10), which increased membrane affinity. Both the MPS and alanines-substituted (A-Mut) MPS peptides are highly positive charged and interact electrostatically with PIP2 on the phospholipid membrane. In contrast, electrostatic interaction with cell membrane is decreased in aspartates-substituted (D-Mut) MPS peptide (Gambhir, A. et al. (2004) Biophys. J. 86:2188-2207; Rusu, L. et al. (2004) Biophys J. 87:1044-1053; Glaser, M. et al. (1996) J. Biol. Chem. 271:26187-26193; Ellena, J.F. et al. (2003) Biophys. J. 85:2442-2448; McLaughlin, S. et al. (2005) Nature 438:605-611). Figure discloses “MH” domain as SEQ ID NO: 42. […] MPS peptide, D-Mut, and A-Mut MPS peptide were labeled with NBD (4-Chloro-7-Nitrobenz-2-Oxa-1,3-Diazole) dye. After purification of peptides, CL1-0 cells were treated with various NBD-labeled peptides and then subjected to DAPI staining. The NBD-labeled peptide (green) and nucleus counter-stain (blue) were visualized via confocal laser-scanning microscopy. […]

cancer cells = assay: Anti-cancer activity of alanine-substituted MPS (method not given)

## KKKKKRFAFKKAFKLAGFAFKKNKK [SEQ ID NO: 10, alanines-substituted MPS peptide]
[1]
  Phospho-MARCKS levels in cancer cells: reduce phospho-MARCKS levels
CL1-0 cells
  Peptide-cell interaction: greater peptide-cell interaction
Cancer cells
  Anti-cancer activity compared to MPS peptide of SEQ ID NO: 9: better anti-cancer activity
